Source: ChEMBL document CHEMBL3217707, “A matched molecular pair analysis of in vitro human microsomal metabolic stability measurements for heterocyclic replacements of di-substituted benzene containing compounds identification of those isosteres more likely to have beneficial effects” (Medchemcomm, 2012)

What was measured:
[1] = Intrinsic clearance in human liver microsomes after 30 mins; format: ADME; conditions: read-out: CLH
[2] = Lipophilicity, log D of the compound at pH 7.4; conditions: buffer

| SMILES | microsomal CLint [1] [µL/min/mg] | logD [2] |
| --- | --- | --- |
| CC(C)(C)OC(=O)N1CCN(c2ccc(OCc3ccc(S(C)(=O)=O)cc3)cc2)CC1 | 62.6 | 3.9 |
| CC(C)(C)OC(=O)N1CCN(c2ccc(OCc3ccc(S(C)(=O)=O)cc3)nc2)CC1 | 105 |  |
| CC(C)(C)OC(=O)N1CCN(c2cnc(OCc3ccc(S(C)(=O)=O)cc3)nc2)CC1 | 86.8 |  |
| CC(C)(C)OC(=O)N1CCN(c2ncc(OCc3ccc(S(C)(=O)=O)cc3)nn2)CC1 | 131 | 2.9 |

Second part, the molecule after the results:

| microsomal CLint [1] [µL/min/mg] | logD [2] | SMILES |
| --- | --- | --- |
| 60 |  | CC(C)(C)OC(=O)N1CCN(c2ncc(OCc3ccc(S(C)(=O)=O)cc3)cn2)CC1 |
| 139 | 2.8 | CC(C)(C)OC(=O)N1CCN(c2ccc(OCc3ccc(S(C)(=O)=O)cc3)nn2)CC1 |
| 29.9 | 3.4 | CC(C)(C)OC(=O)N1CCN(c2cnc(OCc3ccc(S(C)(=O)=O)cc3)cn2)CC1 |
| 247 | 3.2 | CC(C)(C)OC(=O)N1CCN(c2ccc(OCc3ccc(S(C)(=O)=O)cc3)cn2)CC1 |
